Test system: Sprague-Dawley rats
Assay: Phenotypic and functional indicia of immunosuppression in treated rats
Format: in vivo
Conditions: e.g. influenza and lymphocytic coriomeningitis virus

Compound: CC(C)C[C@H](N)CS [leucinethiol]
- resistance to viral challenge: reduced

Reference: US7232570B2, “ERAAP modulators regulate immune responses” (Regents of the University of California, priority 2002, dated 2007)
